A short description of data set [1]: Whole Blood Stability Assay (mouse whole blood). It counts as in vitro ADME. Conditions: CD-1 mouse blood, EDTA-K2, final conc. 2 μM, 37° C., 0-120 min; for half-life at 2 μM: male, fresh whole blood, read-out: Mouse Whole Blood Stability t1/2. As for the experimental part:
Whole Blood Stability Assay
This Example illustrates that exemplary compounds of the present invention is cleavage in mouse whole blood.
(§1) Test Compounds and Stock Solutions: Stock Conc. 10 mM; Final Conc. 2 μM
(§2) Test Compound and Control Working Solution Preparation:
• Intermediate solution: 5 μL of compound stock solution (10 mM in dimethyl sulfoxide (DMSO)) were diluted with […] of DMSO (intermediate solution concentration: 1 mM, 100% DMSO) • Propantheline bromide (control) intermediate solution: 5 μL of propantheline stock solution (10 mM in ultra-pure water) were diluted with 45 μL of ultra-pure water (intermediate solution concentration: 1 mM) • Working solution 1: 20 μL of test compound intermediate solution (1 mM) were diluted with 180 μL of 45% ACN/H2O (working solution concentration: […], 40.5% ACN, 10% DMSO) • Working solution 2: 20 μL of control intermediate solution (1 mM) were diluted with 180 μL of 45% ACN/H2O (working solution concentration: 100 μM, 40.5% ACN, 10% DMSO) • Species/Matrix: CD-1 Mouse Blood • No. of Individuals: n>3 Male • Anticoagulant Used: EDTA-K2
• The fresh blood was collected on the day of experiment and pre-warmed in a water bath at 37° C. • Using an Apricot automation workstation, 98 μL/well of blank blood were added to all 96-well reaction plates (Blank, T0, T10, T30, T60 and T120). • An Apricot automation workstation was used to add 2 μL/well of working solution (100 μM) to all reaction plates except Blank (T0, T10, T30, T60 and T120). • All reaction plates containing mixtures of compound and blood were incubated at 37° C. in water bath. • The reaction plates were incubated at 37° C., and timer was started. • At the end of incubation, mixed 100 μL water with 100 μL spiked blood samples, then added 800 μL of stop solution (200 ng/mL tolbutamide and 200 ng/mL labetalol in ACN) to precipitate protein. Mixed thoroughly. • Each plate was sealed and shaken for 20 minutes. • After shaking, each plate was centrifuged at 4000 rpm and 4° C. for 20 minutes. • After centrifugation, an Apricot automation workstation was used to transfer 150 μL of supernatant from each reaction plate to its corresponding bioanalysis plate. • Each bioanalysis plate was submitted to LC-MS/MS analysis.
• The % remaining of test compound after incubation in blood was calculated using following equation:
(§3) [formula] • where PAR is the peak area ratio of analyte versus internal standard (IS) • The appointed incubation time points are TO (0 min), Tn (n=0, 10, 30, 60 and 120 min)

The nature of data set [2]: Plasma Stability Assay (human plasma). It counts as in vitro ADME. The following applies: both sexes; pooled human plasma, heparin, final conc. 2 μM, 37° C., 0-120 min; read-out: Human Plasma Stability t1/2. As for the experimental part: This Example illustrates that exemplary compounds of the present invention is cleavage in human plasma.
as §1, §2
• Test compound intermediate solution: 10 μL of compound stock solution (10 mM in dimethyl sulfoxide (DMSO)) were diluted with 90 μL of DMSO (intermediate solution concentration: 1 mM, 100% DMSO) • Control intermediate solution: 10 μL of control stock solution (10 mM in dimethyl sulfoxide (DMSO)) were diluted with 90 μL of DMSO (intermediate solution concentration: 1 mM, 100% DMSO) • Species/Matrix: Human Plasma • No. of Individuals: 3 Male & 3 Female • Anticoagulant Used: Heparin
• The pooled frozen plasma was thawed in a water bath at 37° C. prior to experiment. Plasma was centrifuged at 4000 rpm for 5 min and the clots were removed if any. • Using an Apricot automation workstation, 98 μL/well of blank plasma were added to all 96-well reaction plates. (Blank, T0, T10, T30, T60 and T120) • An Apricot automation workstation was used to add 2 μL/well of working solution (100 μM) to all reaction plates except Blank. (T0, T10, T30, T60 and T120) • All reaction plates containing mixtures of compound and plasma were incubated at 37° C. in water bath. • The reaction plates were incubated at 37° C., and timer was started. • At the end of incubation, added 500 μL of stop solution (200 ng/mL tolbutamide and 200 ng/mL labetalol in ACN) to precipitate protein. Mixed thoroughly. • Each plate was sealed and shaken for 20 minutes. • After shaking, each plate was centrifuged at 4000 rpm and 4° C. for 20 minutes • After centrifugation, an Apricot automation workstation was used to transfer 50 μL supernatant into 100 μL HPLC water. • Each bioanalysis plate was sealed and shaken for 10 minutes prior to LC-MS/MS analysis Data Analysis • The % remaining of test compound after incubation in blood was calculated using following equation:
as §3

Each structure is given as a SMILES string. Some results are limits rather than exact numbers.

Regarding `CCCCCCCCCC(=O)Oc1cc(-c2ncc3c(N4C[C@@H]5C[C@H](C4)[C@H](O)C5)nc(OC[C@@]45CCCN4C[C@H](F)C5)nc3c2F)c2c(CC)c(F)ccc2c1` [Example 25, 5-ethyl-6-fluoro-4-(8-fluoro-2-(((2R,7aS)-2-fluorotetrahydro-1H-pyrrolizin-7a(5H)-yl)methoxy)-4-((1R,5R,6R)-6-hydroxy-3-azabicyclo[3.2.1]octan-3-yl)pyrido[4,3-d]pyrimidin-7-yl)naphthalen-2-yl decanoate], in data set [1], the “Mouse Whole Blood Stability t1/2” value is on record as 1 min. The half-life at 2 μM in data set [2] was found to be 1.28 h.
On to `CCc1c(F)ccc2cc(OC(=O)N3CCC[C@@H](C)C3)cc(N3CCc4c(nc(OC[C@@]56CCCN5C[C@H](F)C6)nc4N4CCC[C@]5(C4)NC(=O)NC5=O)C3)c12` [Example 58, 4-(4-((R)-2,4-dioxo-1,3,7-triazaspiro[4.5]decan-7-yl)-2-(((2R,7aS)-2-fluorotetrahydro-1H-pyrrolizin-7a(5H)-yl)methoxy)-5,8-dihydropyrido[3,4-d]pyrimidin-7(6H)-yl)-5-ethyl-6-fluoronaphthalen-2-yl (R)-3-methylpiperidine-1-carboxylate], for which the half-life at 2 μM in data set [1] and in data set [2] was over 4.82 h throughout.
Consider `CCc1c(F)ccc2cc(OC(=O)N(CC)CC)cc(N3CCc4c(nc(OC[C@@]56CCCN5C[C@H](F)C6)nc4N4CCC[C@]5(C4)NC(=O)NC5=O)C3)c12` [Example 45, 4-(4-((R)-2,4-dioxo-1,3,7-triazaspiro[4.5]decan-7-yl)-2-(((2R,7aS)-2-fluorotetrahydro-1H-pyrrolizin-7a(5H)-yl)methoxy)-5,8-dihydropyrido[3,4-d]pyrimidin-7(6H)-yl)-5-ethyl-6-fluoronaphthalen-2-yl diethylcarbamate], for which the half-life at 2 μM in data set [1] and in data set [2] was over 4.82 h in each case.
As to `CCc1c(F)ccc2cc(OC(=O)C3CC3)cc(N3CCc4c(nc(OC[C@@]56CCCN5C[C@H](F)C6)nc4N4CCC[C@]5(C4)NC(=O)NC5=O)C3)c12` [Example 32, 4-(4-((R)-2,4-dioxo-1,3,7-triazaspiro[4.5]decan-7-yl)-2-(((2R,7aS)-2-fluorotetrahydro-1H-pyrrolizin-7a(5H)-yl)methoxy)-5,8-dihydropyrido[3,4-d]pyrimidin-7(6H)-yl)-5-ethyl-6-fluoronaphthalen-2-yl cyclopropanecarboxylate], the half-life at 2 μM in data set [1] is 0.0333 h; in data set [2] it was 0.85 h.
On to `CCc1c(F)ccc2cc(OC(=O)N3CCCC3)cc(N3CCc4c(nc(OC[C@@]56CCCN5C[C@H](F)C6)nc4N4CCC[C@]5(C4)NC(=O)NC5=O)C3)c12` [Example 43, 4-(4-((R)-2,4-dioxo-1,3,7-triazaspiro[4.5]decan-7-yl)-2-(((2R,7aS)-2-fluorotetrahydro-1H-pyrrolizin-7a(5H)-yl)methoxy)-5,8-dihydropyrido[3,4-d]pyrimidin-7(6H)-yl)-5-ethyl-6-fluoronaphthalen-2-yl pyrrolidine-1-carboxylate], for which the half-life at 2 μM in data set [1] and in data set [2] was over 4.82 h throughout.
`CCc1c(F)ccc2cc(OC(=O)OC(C)(C)C)cc(N3CCc4c(nc(OC[C@@]56CCCN5C[C@H](F)C6)nc4N4CCC[C@]5(C4)NC(=O)NC5=O)C3)c12` [Example 46, tert-butyl (4-(4-((R)-2,4-dioxo-1,3,7-triazaspiro[4.5]decan-7-yl)-2-(((2R,7aS)-2-fluorotetrahydro-1H-pyrrolizin-7a(5H)-yl)methoxy)-5,8-dihydropyrido[3,4-d]pyrimidin-7(6H)-yl)-5-ethyl-6-fluoronaphthalen-2-yl) carbonate]: the half-life at 2 μM in data set [1] was determined as 0.217 h; in data set [2], 1.93 h.

These data come from patent US20250376483A1, “PRODRUGS OF PAN-KRAS INHIBITORS” (Mirati Therapeutics, Inc., priority 2022, published 2025).
